The text below walks through data of patent US20090311217A1, “3-SUBSTITUTED-1H-INDOLE COMPOUNDS, THEIR USE AS MTOR KINASE AND PI3 KINASE INHIBITORS, AND THEIR SYNTHESES” (priority 2008, published 2009).

Holding throughout (type): biochemical
The target of one test is PI3K-alpha (Homo sapiens, UniProt P42336). The experiment in a line: PI3K-alpha fluorescence polarization assay. The settings on record: read-out: PI3Kα Avg. IC50. (In general: Polarisation of emitted light reports the rotation of a fluorescent probe.)
The target in another test is PI3K-gamma (Homo sapiens, UniProt P48736). Briefly: PI3K-gamma fluorescence polarization assay. The settings on record: PI3Kγ Avg. IC50. The method in brief:
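Inhibition is derived from a polarization signal: after a 1 h, 25° C kinase step (25 μM ATP, 2.5 μM diC8-PIP2, pH 7), EDTA stops the reaction and the GRP1 PH domain/TMR-IP4 pair reports lipid product.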

Another test concerns the target T1, human TOR (Homo sapiens, UniProt P42345).
T1 construct: FLAG
Briefly: mTOR enzyme assay (DELFIA, His6-S6K substrate). The note with it: read-out: mTOR Kinase Avg. IC50.

PI3K-gamma, sequence (P48736 whole entry, species assumed, the tested form may be a part): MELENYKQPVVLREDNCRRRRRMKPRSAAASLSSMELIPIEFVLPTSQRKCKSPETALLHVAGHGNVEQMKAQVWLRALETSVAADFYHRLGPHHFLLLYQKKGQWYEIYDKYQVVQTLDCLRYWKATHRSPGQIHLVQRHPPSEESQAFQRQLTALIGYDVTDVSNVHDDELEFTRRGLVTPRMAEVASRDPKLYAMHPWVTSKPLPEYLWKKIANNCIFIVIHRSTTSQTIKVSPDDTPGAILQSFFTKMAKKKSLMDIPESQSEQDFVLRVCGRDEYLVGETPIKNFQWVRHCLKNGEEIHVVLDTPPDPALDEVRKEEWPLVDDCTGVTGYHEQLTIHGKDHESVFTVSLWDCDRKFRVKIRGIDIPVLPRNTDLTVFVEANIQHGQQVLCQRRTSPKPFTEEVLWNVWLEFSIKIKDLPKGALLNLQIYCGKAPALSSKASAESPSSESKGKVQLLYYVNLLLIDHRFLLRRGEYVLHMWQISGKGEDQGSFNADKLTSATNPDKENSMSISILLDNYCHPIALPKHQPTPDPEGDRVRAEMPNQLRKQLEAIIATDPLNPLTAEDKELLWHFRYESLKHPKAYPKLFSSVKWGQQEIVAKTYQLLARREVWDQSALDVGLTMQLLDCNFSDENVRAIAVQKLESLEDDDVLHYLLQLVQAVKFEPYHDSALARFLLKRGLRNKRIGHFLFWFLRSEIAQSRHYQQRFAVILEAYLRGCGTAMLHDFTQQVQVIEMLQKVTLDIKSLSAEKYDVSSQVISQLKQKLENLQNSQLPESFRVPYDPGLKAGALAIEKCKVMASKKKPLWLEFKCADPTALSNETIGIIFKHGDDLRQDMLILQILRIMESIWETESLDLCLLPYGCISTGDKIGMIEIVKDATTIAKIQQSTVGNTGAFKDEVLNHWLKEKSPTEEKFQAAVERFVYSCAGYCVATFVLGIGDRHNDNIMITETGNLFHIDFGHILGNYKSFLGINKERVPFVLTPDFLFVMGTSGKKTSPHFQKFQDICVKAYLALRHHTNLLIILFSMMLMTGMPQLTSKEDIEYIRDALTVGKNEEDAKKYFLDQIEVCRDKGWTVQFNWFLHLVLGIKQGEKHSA
PI3K-alpha, sequence (P42336 whole entry, species assumed): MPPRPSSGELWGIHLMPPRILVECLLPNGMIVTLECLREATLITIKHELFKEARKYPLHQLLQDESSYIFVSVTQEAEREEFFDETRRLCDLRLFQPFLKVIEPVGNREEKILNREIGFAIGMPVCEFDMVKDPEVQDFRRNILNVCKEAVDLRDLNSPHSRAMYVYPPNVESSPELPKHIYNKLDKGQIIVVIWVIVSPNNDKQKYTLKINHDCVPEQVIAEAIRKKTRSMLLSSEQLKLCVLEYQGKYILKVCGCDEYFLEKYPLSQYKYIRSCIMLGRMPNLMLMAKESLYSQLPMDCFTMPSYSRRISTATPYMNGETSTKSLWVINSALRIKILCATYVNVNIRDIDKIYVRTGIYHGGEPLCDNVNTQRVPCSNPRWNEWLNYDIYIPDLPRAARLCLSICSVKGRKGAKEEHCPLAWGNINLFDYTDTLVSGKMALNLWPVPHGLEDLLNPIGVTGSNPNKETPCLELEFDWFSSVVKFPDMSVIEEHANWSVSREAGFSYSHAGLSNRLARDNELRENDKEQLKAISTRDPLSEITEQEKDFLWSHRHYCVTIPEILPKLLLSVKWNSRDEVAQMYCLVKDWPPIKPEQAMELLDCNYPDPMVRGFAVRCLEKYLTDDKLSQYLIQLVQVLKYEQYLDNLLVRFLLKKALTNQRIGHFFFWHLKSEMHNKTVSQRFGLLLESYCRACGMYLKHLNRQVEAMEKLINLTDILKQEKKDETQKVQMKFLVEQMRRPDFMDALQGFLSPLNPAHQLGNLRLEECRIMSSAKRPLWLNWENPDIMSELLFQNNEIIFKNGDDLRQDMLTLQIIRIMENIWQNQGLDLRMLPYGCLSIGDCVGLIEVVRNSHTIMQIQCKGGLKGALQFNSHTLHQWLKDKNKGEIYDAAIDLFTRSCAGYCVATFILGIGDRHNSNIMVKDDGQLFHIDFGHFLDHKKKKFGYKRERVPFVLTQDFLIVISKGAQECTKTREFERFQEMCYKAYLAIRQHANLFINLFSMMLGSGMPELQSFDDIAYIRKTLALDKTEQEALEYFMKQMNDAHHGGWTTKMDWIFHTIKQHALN
PI3K-alpha, sequence (P27986 whole entry partner, species assumed): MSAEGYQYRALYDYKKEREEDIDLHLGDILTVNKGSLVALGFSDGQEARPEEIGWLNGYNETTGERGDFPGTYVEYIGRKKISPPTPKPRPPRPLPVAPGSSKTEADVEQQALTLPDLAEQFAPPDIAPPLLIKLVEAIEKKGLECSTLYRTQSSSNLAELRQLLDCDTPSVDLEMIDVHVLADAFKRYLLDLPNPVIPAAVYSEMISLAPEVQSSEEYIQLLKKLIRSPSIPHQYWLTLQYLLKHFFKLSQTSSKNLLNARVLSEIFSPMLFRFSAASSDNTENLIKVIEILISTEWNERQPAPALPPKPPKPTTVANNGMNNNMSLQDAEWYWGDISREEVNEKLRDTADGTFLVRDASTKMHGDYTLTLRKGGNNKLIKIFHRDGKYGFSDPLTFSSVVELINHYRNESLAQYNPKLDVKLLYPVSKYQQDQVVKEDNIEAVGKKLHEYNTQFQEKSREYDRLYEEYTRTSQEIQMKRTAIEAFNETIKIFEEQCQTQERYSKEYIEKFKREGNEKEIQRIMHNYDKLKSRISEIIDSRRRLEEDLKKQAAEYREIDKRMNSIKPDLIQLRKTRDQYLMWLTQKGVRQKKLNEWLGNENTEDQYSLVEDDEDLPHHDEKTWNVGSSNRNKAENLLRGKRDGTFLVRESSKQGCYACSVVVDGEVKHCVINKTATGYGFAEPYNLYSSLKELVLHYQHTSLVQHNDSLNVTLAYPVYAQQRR

The term IC50 denotes the point on the concentration scale where inhibition reaches its midpoint. With `Cc1[nH]c2ccc(Cl)cc2c1C=C1Oc2cc(O)cc(O)c2C1=O` [Example 215, 2-[(5-chloro-2-methyl-1H-indol-3-yl)methylene]-4,6-dihydroxy-1-benzofuran-3(2H)-one], the IC50 at PI3K-alpha was 264 nM; against PI3K-gamma, 2610 nM; at human TOR, 290 nM.
As to `CNC(=O)Nc1ccc2c(c1)C(=O)/C(=C/c1c(C3CCCCC3)[nH]c3ccc(OC)cc13)O2` [Compound 641, 1-{(2Z)-2-[(2-cyclohexyl-5-methoxy-1H-indol-3-yl)methylene]-3-oxo-2,3-dihydro-1-benzofuran-5-yl}-3-methylurea], the IC50 at PI3K-alpha was 1.6 nM; against PI3K-gamma it was 8 nM; at human TOR, 10 nM.
In the same order, the values of `Cn1cc(/C=C2\Oc3cc(O)cc(O)c3C2=O)c2c(-c3ccccc3N)cccc21` [Example 419, (2Z)-2-{[4-(2-Aminophenyl)-1-methyl-1H-indol-3-yl]methylene}-4,6-dihydroxy-1-benzofuran-3(2H)-one] are 1070 nM, > 10000 nM and 24 nM.
The corresponding values for `CCn1cc(/C=C2\Oc3ccc(NC(=O)Nc4ccc(C(=O)N(C)CCN(C)C)cc4)cc3C2=O)c2cc(OC)ccc21` [Compound 655, N-[2-(dimethylamino)ethyl]-4-[({(2Z)-2-[(1-ethyl-5-methoxy-1H-indol-3-yl)methylene]-3-oxo-2,3-dihydro-1-benzofuran-5-yl}carbamoyl)amino]-N-methylbenzamide] are 0.6 nM, 7.5 nM and 175 nM.
With `O=C1C(=Cc2c[nH]c3ccc(O)cc23)Oc2cc(O)cc(O)c21` [Example 164, 4,6-dihydroxy-2-[(5-hydroxy-1H-indol-3-yl)methylene]-1-benzofuran-3(2H)-one], the IC50 was determined as 251 nM on PI3K-alpha, 3850 nM against PI3K-gamma and 5200 nM at human TOR.
For the compound `Cn1cc(C=C2Oc3cc(O)cc(O)c3C2=O)c2cccc([N+](=O)[O-])c21` [Example 229, 4,6-dihydroxy-2-[(1-methyl-7-nitro-1H-indol-3-yl)methylene]-1-benzofuran-3(2H)-one], the IC50 at PI3K-alpha is 735 nM; at PI3K-gamma, > 10000 nM; on human TOR, 8300 nM.
As for `COc1ccc2c(c1)c(/C=C1\Oc3cc(O)cc(Br)c3C1=O)c(C)n2CCN1CCN(C)CC1` [Example 429, (2Z)-4-Bromo-6-hydroxy-2-({5-methoxy-2-methyl-1-[2-(4-methylpiperazin-1-yl)ethyl]-1H-indol-3-yl}methylene)-1-benzofuran-3(2H)-one], the values for the IC50 at PI3K-alpha, on PI3K-gamma and on human TOR were 67.5 nM, 3130 nM and 500 nM, respectively.
In the same order, the values of `CCc1cccc2c(C=C3Oc4cc(O)cc(O)c4C3=O)cn(CCCC#N)c12` [Example 232, 4-{3-[(4,6-dihydroxy-3-oxo-1-benzofuran-2(3H)-ylidene)methyl]-7-ethyl-1H-indol-1-yl}butanenitrile] are 610 nM, 6000 nM and > 20000 nM.
In the case of `COc1ccc2c(c1)c(/C=C1\Oc3cc(NC(=O)OC(C)(C)C)ccc3C1=O)cn2CCCN(C)C` [Example 417, tert-butyl (2Z)-[2-({1-[3-(dimethylamino)propyl]-5-methoxy-1H-indol-3-yl}methylene)-3-oxo-2,3-dihydro-1-benzofuran-6-yl]carbamate], the IC50 was 4740 nM on PI3K-alpha, 2100 nM against PI3K-gamma and > 20000 nM at human TOR.
Take `Cn1c(-c2ccc(O)cc2)c(C=C2Oc3cc(O)cc(O)c3C2=O)c2ccccc21` [Example 193, 4,6-dihydroxy-2-{[2-(4-hydroxyphenyl)-1-methyl-1H-indol-3-yl]methylene}-1-benzofuran-3(2H)-one]: the IC50 on PI3K-alpha came out at 1120 nM; on PI3K-gamma, 7660 nM; at human TOR it was 85 nM.
For the compound `CCn1c(C)c(/C=C2\Oc3ccc(NC(=O)Nc4ccc(N(C)CCCCN(C)C)cc4)cc3C2=O)c2cc(OC)ccc21` [Compound 675, 1-(4-{[4-(dimethylamino)butyl](methyl)amino}phenyl)-3-{(2Z)-2-[(1-ethyl-5-methoxy-2-methyl-1H-indol-3-yl)methylidene]-3-oxo-2,3-dihydro-1-benzofuran-5-yl}urea], the IC50 at PI3K-alpha came to 9 nM; against PI3K-gamma, 40 nM; at human TOR, 370 nM.
On to `CNC(=S)Nc1ccc2c(c1)C(=O)/C(=C/c1c(C)n(CCN3CCN(C)CC3)c3ccc(OC)cc13)O2` [Compound 647, 1-[(2Z)-2-({5-methoxy-2-methyl-1-[2-(4-methylpiperazin-1-yl)ethyl]-1H-indol-3-yl}methylene)-3-oxo-2,3-dihydro-1-benzofuran-5-yl]-3-methylthiourea], for which the IC50 at PI3K-alpha is 10 nM; against PI3K-gamma, 4850 nM; on human TOR, 1260 nM.
Regarding `CCn1c(C)c(/C=C2\Oc3ccc(NC(=O)Nc4ccc(CCCCN(C)C)cc4)cc3C2=O)c2cc(OC)ccc21` [Compound 663, 1-{4-[4-(dimethylamino)butyl]phenyl}-3-{(2Z)-2-[(1-ethyl-5-methoxy-2-methyl-1H-indol-3-yl)methylidene]-3-oxo-2,3-dihydro-1-benzofuran-5-yl}urea], the values for the IC50 at PI3K-alpha, on PI3K-gamma and on human TOR were 5.73 nM, 42.3 nM and 710 nM, respectively.
Regarding `Cn1cc(/C=C2\Oc3cc(O)cc(O)c3C2=O)c2c(-c3ccc(C#N)cc3)cccc21` [Example 368, 4-{3-[(Z)-(4,6-Dihydroxy-3-oxo-1-benzofuran-2(3H)-ylidene)methyl]-1-methyl-1H-indol-4-yl}benzonitrile], the IC50 on PI3K-alpha is 1000 nM; against PI3K-gamma, 4570 nM; at human TOR, 44.5 nM.
In the case of `COc1ccc2c(c1)c(/C=C1\Oc3cc(O)ccc3C1=O)c(C)n2CCCN1CCC(C)CC1` [Example 460, (2Z)-6-Hydroxy-2-({5-methoxy-2-methyl-1-[3-(4-methylpiperidin-1-yl)propyl]-1H-indol-3-yl}methylene)-1-benzofuran-3(2H)-one], the IC50 on PI3K-alpha stood at 18 nM; against PI3K-gamma, 1380 nM; at human TOR it was 6500 nM.
The corresponding values for `COc1ccc2c(c1)SC(=Cc1c[nH]c3ccc(OC)cc13)C2=O` [Example 433, 6-Methoxy-2-[(5-methoxy-1H-indol-3-yl)methylene]-1-benzothiophen-3(2H)-one] are > 10000 nM, > 10000 nM and > 20000 nM.
For the compound `Cn1cc(/C=C2\Oc3cc(O)cc(O)c3C2=O)c2c(-c3ccc(C(=O)N4CCCC4)cc3)cccc21` [Example 396, (2Z)-4,6-Dihydroxy-2-({1-methyl-4-[4-(pyrrolidin-1-ylcarbonyl)phenyl]-1H-indol-3-yl}methylene)-1-benzofuran-3(2H)-one], the IC50 on PI3K-alpha was 547 nM; at PI3K-gamma it was 448 nM; at human TOR it was 30 nM.
As for `Cn1cc(/C=C2\Oc3cc(O)cc(O)c3C2=O)c2c(-c3ccccc3F)cccc21` [Example 366, (2Z)-2-{[4-(2-Fluorophenyl)-1-methyl-1H-indol-3-yl]methylene}-4,6-dihydroxy-1-benzofuran-3(2H)-one], the IC50 at PI3K-alpha stood at 1090 nM; at PI3K-gamma it was 3930 nM; at human TOR, 75.5 nM.
